Assay [1] addresses T1, Isoform 3 of Cleavage and polyadenylation specificity factor subunit 7 (Homo sapiens, UniProt Q8N684).
T1 construct: After collecting data covering >8,000 proteins in lysates of normal BJ cells; endogenous in cells; host or cells: normal BJ cells, lysate
Kind of assay: MS-CETSA in normal BJ cell lysates. In kind it is binding. The conditions noted are these: Uniprot Q8N684-3, lysate, 100 μM compound.
Method: (§1) Target identification was performed by cellular thermal shift assay (CETSA) coupled with quantitative mass spectrometry. In brief, normal BJ cells were lysed by combination of freeze/thaw and mechanical shearing with needle in buffer [50 mM HEPES (pH 7.5), 5 mM β-glycerophosphate, 0.1 mM Sodium Vanadate, 10 mM MgCl2, 1 mM TCEP and 1× Protease inhibitor Cocktail]. The cell debris was removed by centrifugation at 20,000 g for 20 min at 4° C. […] Each lysate was divided into 10 aliquots for heat treatment at the respective temperatures for 3 min in a 96-well thermocycler, followed by 3 min at 4° C. The lysate was centrifuged at 20,000 g for 20 min at 4° C. and the supernatant was transferred into microtubes for MS sample preparation.
(§2) After lysis, at least 100 μg of the protein (measured with a BCA assay) was subjected to reduction, denaturation and alkylation. Samples were subsequently incubated with sequencing grade LysC (Wako) and trypsin (Promega) for digestion overnight at 37° C. The digested samples were dried using a centrifugal vacuum evaporator, solubilized in 100 mM TEAB. […]
(§3) Proteins for which a low temperature plateau was not present were deleted using a cut off >0.85 for the average reading of the first three temperature points (in our experience proteins melting already at −37° C. are more prone to give false positives in a shift analysis).

The test system of assay [2] is Ras-driven glioma initiating cells (GICs). Kind of assay: Brain slice explants (orthotopically implanted ex vivo model). Details: species or system mouse. The conditions noted are these: 20 μM, 4 days. As to the method: Fifty thousand GICs were orthotopically implanted into the forebrain of wild-type mice, and at 7 days post-implantation, brain slice explants were established as previously described (Sampetrean, O. et al., Neoplasia 13: 784-791 (2011)). […] Images were acquired on an FV10i Olympus confocal microscope (Olympus) and tumor area was quantified by Nikon NIS-element software. Experiments were performed in triplicate. At the end of the experiment (Day 4), slices were fixed overnight in 4% paraformaldehyde, embedded in paraffin and then sectioned at a thickness of 4 μm. Deparaffinized sections were stained with rabbit polyclonal antibody against cleaved caspase 3 (Cell Signaling). Immune complexes were detected using Histofine (Nichirei Biosciences) and ImmPACTDAB (Vector Laboratories). All animal experiments were performed in accordance with the animal care guidelines of Keio University.

The target of assay [3] is T2, RNA-binding protein 4 (Homo sapiens, UniProt Q9BWF3).
T2 construct: After collecting data covering >8,000 proteins in lysates of normal BJ cells; endogenous in cells; host or cells: normal BJ cells, lysate
Kind of assay: MS-CETSA in normal BJ cell lysates. To be noted: lysate, 100 μM compound.
Method: as §1, §2, §3

Assay [4] has as its system A549. Put plainly: MTT cytotoxicity test (GI50). In kind it is cell-based. The conditions noted are these: Homo sapiens; A549, cancer, others, lung; MTT 72 h. On the technique in general: Tetrazolium dyes change colour on reduction, which living cells bring about.
Assay [5] deals with SNU449. Put plainly: MTT cytotoxicity test (GI50). The assay is classed as cell-based. To be noted: Homo sapiens, SNU-449; SNU449, cancer, liver; MTT 72 h.
The test system of assay [6] is normal BJ cells with activated H-RasV12-ER. Kind of assay: FACS subG1 in engineered BJ-derived fibroblasts. The conditions noted are these: 5 μM, 48 h. The assay is classed as cell-based, human. As to the method:
Isogenic BJ human foreskin fibroblast cell lines, including non-transformed (normal) and transformed BJ cells and all gastric cancer cell lines, were kind gifts from Dr. Mathijs Voorhoeve and Dr. Patrick Tan (Duke-NUS), respectively and tested for mycoplasma infection. All other human cancer cell lines used in this study were purchased from ATCC and cultured in accordance with ATCC's instructions. H-RasV12-ER was activated by exposing the BJ-derived fibroblasts to 4-OHT (100 nM, Sigma-Aldrich). Three different sets of siRNAs were used in this study to target PI5P4K isoform DNA sequences as follows:
Cell death was assessed via Annexin V and/or PI (propidium iodide) staining according to the manufacturer's instructions (eBioscience). Cell growth arrest was assessed by direct measurement of DNA synthesis through incorporation of the nucleoside analog bromodeoxyuridine (BrdU). Briefly, BrdU (30 μM, Sigma-Aldrich) was added for 2 h before harvesting cells. […] Stained cells were analyzed by MACSQuant (MACS). […] The percentage of Annexin V/PI- or BrdU-positive cells was quantified using Flow Jo software (Becton Dickinson). Where indicated, the combined activity of caspase-3/7 was determined using the caspase-Glo 3/7 Assay Kit (Promega) and normalized to the number of viable cells as determined by MTT assay.

In assay [7] the test system is IM95. Put plainly: MTT cytotoxicity test (GI50). To be noted: Homo sapiens; IM95, cancer, gastric; MTT 72 h. The assay is classed as cell-based.
In assay [8] the test system is NCC59. Kind of assay: MTT cytotoxicity test (GI50). In kind it is cell-based. To be noted: Homo sapiens; NCC59, cancer, gastric; MTT 72 h.
Assay [9] deals with SNU1750. Kind of assay: MTT cytotoxicity test (GI50). The assay is classed as cell-based. The conditions noted are these: Homo sapiens; SNU1750, cancer, gastric; MTT 72 h.
Assay [10] has as its system PIK3IP1. Kind of assay: qRT-PCR of PIK3IP1 mRNA in Ras- or Raf-mutant cancer cell lines. The conditions noted are these: 2.5 and 5 μM, 24 h; compared with normal cells. The assay is classed as cell-based, human. The procedure: […] human […] ID NO: 11, [NT] ID NO: 12), human […] ID NO: 13, [NT] ID NO: 14), human […] ID NO: 15, [NT] ID NO: 16) and human PIK3IP1 ([NT] ID NO: 17, [NT] ID NO: 18). The TATA-binding protein (TBP) gene was used for normalization. All PCR reactions were performed in triplicate.

For assay [11], the system named is AGS. Put plainly: MTT cytotoxicity test (GI50). To be noted: Homo sapiens, cancer, gastric, MTT 72 h. In kind it is cell-based.
Assay [12] concerns SNU-16. Put plainly: MTT cytotoxicity test (GI50). The assay is classed as cell-based. To be noted: Homo sapiens; SNU-16, cancer, gastric; MTT 72 h.
Assay [13] concerns human normal cell lines. Kind of assay: MTT cytotoxicity test, panel of human normal cell lines. In kind it is cell-based. The conditions noted are these: mean over panel of human normal cell lines; MTT 72 h.
Assay [14] has as its system transformed BJ cells. Kind of assay: FACS analysis of the cell cycle (BrdU and PI double staining). The assay is classed as cell-based, human. To be noted: 2.5 μM, 48 h. As to the method:
Cell death was assessed via Annexin V and/or PI (propidium iodide) staining according to the manufacturer's instructions (eBioscience). Cell growth arrest was assessed by direct measurement of DNA synthesis through incorporation of the nucleoside analog bromodeoxyuridine (BrdU). Briefly, BrdU (30 μM, Sigma-Aldrich) was added for 2 h before harvesting cells. Cells were subsequently stained with Pacific Blue-conjugated BrdU antibody (Invitrogen) for 1 h followed by PI staining. Stained cells were analyzed by MACSQuant (MACS). Three independent experiments were performed in triplicate. The percentage of Annexin V/PI- or BrdU-positive cells was quantified using Flow Jo software (Becton Dickinson). Where indicated, the combined activity of caspase-3/7 was determined using the caspase-Glo 3/7 Assay Kit (Promega) and normalized to the number of viable cells as determined by MTT assay.
Background: In flow cytometry, cells or beads pass a laser one at a time.

In assay [15] the target is T3, MIP18 family protein FAM96A (Homo sapiens, UniProt Q9H5X1).
T3 construct: After collecting data covering >8,000 proteins in lysates of normal BJ cells; endogenous in cells; host or cells: normal BJ cells, lysate
Kind of assay: MS-CETSA in normal BJ cell lysates. The assay is classed as binding. To be noted: lysate, 100 μM compound.
Method: as §1, §2, §3

T2 sequence (Q9BWF3 whole entry): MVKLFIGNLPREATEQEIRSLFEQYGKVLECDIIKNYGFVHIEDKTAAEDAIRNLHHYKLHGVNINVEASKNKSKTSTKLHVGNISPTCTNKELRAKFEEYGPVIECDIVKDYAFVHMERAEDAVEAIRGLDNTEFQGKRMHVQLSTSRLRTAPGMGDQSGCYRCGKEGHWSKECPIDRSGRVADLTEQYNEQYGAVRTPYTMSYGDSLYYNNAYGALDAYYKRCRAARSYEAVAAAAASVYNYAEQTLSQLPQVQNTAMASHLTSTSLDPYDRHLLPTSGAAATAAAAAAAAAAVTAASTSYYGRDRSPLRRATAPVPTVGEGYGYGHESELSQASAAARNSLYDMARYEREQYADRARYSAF
T3 sequence (Q9H5X1 whole entry): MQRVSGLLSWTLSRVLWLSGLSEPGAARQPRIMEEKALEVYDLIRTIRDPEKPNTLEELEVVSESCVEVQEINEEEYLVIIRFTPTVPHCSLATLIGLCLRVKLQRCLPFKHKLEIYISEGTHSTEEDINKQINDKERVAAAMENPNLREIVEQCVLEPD
T1 sequence (Q8N684 1-514 isoform Q8N684-3): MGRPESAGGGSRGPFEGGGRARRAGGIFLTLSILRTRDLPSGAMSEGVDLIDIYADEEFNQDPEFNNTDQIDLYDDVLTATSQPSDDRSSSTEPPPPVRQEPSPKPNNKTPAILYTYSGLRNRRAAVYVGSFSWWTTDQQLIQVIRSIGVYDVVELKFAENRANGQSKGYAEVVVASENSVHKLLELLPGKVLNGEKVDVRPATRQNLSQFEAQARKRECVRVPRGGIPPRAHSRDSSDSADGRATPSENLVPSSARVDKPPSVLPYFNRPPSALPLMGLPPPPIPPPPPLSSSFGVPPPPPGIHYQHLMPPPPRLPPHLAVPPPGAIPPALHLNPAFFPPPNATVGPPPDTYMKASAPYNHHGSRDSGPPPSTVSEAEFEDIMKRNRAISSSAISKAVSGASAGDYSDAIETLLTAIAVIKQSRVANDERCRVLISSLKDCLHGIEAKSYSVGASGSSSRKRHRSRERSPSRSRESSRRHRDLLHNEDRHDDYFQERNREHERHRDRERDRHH

In the case of `N#C/C(=C\c1cccc2cnccc12)c1c[nH]c2ccccc12` [a131, (Z)-2-(1H-indol-3-yl)-3-(5-isoquinolyl)prop-2-enenitrile], the ED score in [1] is recorded as 0.3008; in [3], 0.3323; in assay [15] it was 0.291. For the same molecule, in assay [1] (in °C (unit assumed)), the “mean Delta Tm” value was determined as 1.653. Further, the “apoptosis (cleaved caspase-3) in tumor versus surrounding normal tissue” value in [2] is reported as “induced apoptosis only in tumors, but not surrounding normal tissues”. Further, the “tumor growth of GICs in brain explants (Day 4/Day 0)” value in assay [2] is “significantly suppressed growth”. In addition, the ΔTm at 100 µM turned out to be 1.88 °C in assay [3] (read-out: mean Delta Tm) and 2.17 °C in [15] (read-out: mean Delta Tm). Besides, the GI50 in [4] is 2000 nM; in assay [5], 2300 nM; in assay [7], 1000 nM; in [8] it was 900 nM; in assay [9] it was 700 nM; in assay [11], 1100 nM. Also, the GI50 in assay [12] was 1000 nM; in [13], 6500 nM. Further, the “a131-induced cell death after 4-OHT-induced activation of H-RasV12-ER” value in assay [6] is recorded as “sufficient to sensitize normal BJ cells to a131-induced cell death”. For the same molecule, the “induction of PIK3IP1 in Ras- and Raf-mutant cancer cells” value in assay [10] is on record as “significantly attenuated”. Further, the “aneuploidy (>4N)” value in assay [14] is listed as “significantly induced aneuploidy (>4N) only in transformed BJ cells”. Moreover, the “cell death (<2N, subG1)” value in [14] (transformed versus normal BJ cells) is reported as “dramatically induced cell death (<2N) through apoptosis”.

As a reminder, the GI50 is the concentration giving 50% growth inhibition. High values mean less potent growth inhibition, low ones more potent growth inhibition.

For the origin of these results see patent publication US20190350964A1, “ANTI-CANCER COMPOUNDS AND USES THEREOF” (NATIONAL UNIVERSITY OF SINGAPORE, priority 2016, published 2019).
